According to ChEMBL document CHEMBL3596172 (J Med Chem, 2015):

Each molecule was assayed against D(3) dopamine receptor (Homo sapiens, UniProt P35462) (assay: biochemical).
Chain of D(3) dopamine receptor (P35462 whole entry): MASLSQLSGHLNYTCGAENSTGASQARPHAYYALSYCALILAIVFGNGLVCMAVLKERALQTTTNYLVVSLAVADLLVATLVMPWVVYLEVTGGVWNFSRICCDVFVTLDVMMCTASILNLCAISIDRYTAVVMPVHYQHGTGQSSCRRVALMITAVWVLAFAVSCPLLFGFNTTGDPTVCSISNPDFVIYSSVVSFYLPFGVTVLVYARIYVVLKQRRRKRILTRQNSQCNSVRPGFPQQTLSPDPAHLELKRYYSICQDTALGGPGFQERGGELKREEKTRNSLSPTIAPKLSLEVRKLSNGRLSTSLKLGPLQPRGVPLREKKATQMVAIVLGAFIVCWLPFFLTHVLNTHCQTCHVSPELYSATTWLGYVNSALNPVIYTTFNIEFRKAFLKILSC
Description: Displacement of [3H]-N-methylspiperone from human dopamine D3 receptor (unknown origin) expressed in HEK293 cells after 1 hr by liquid scintillation counting
In the case of `COc1ccccc1N1CCN(CCCCNC(=O)c2ccc3ccccc3n2)CC1`, the Ki is reported as 3.46 nM.
In the case of `O=C(NCCCCN1CCN(c2cccc3ccccc23)CC1)c1cc2ccccc2o1`, the Ki is reported as 0.244 nM.
In the case of `COc1c(Cl)cccc1N1CCN(CC(O)CCNC(=O)c2cnc3ccccc3c2)CC1` (stereo not given), the Ki is reported as 31.6 nM.
With `O=C(NCCCCN1CCN(c2cccc(Cl)c2Cl)CC1)c1cnc2ccc(F)cc2c1` the Ki was 0.57 nM.
`O=C(NCCC(O)CN1CCN(c2cccc(Cl)c2Cl)CC1)c1cnc2ccc(F)cc2c1` (stereo not given) showed a Ki of 8.05 nM.
`COc1c(Cl)cccc1N1CCN(CCCCNC(=O)c2cc3ccccc3o2)CC1` gave a Ki of 0.907 nM.
In the case of `COc1ccc2[nH]c(C(=O)NCCCCN3CCN(c4cccc5ccccc45)CC3)cc2c1`, the Ki is reported as 0.173 nM.
`COc1ccccc1N1CCN(CC(O)CCNC(=O)c2ccc3ccccc3n2)CC1` (stereo not given) was tested, and the Ki was 97.9 nM.
`COc1ccccc1N1CCN(CCCCNC(=O)c2ccc3cc(F)ccc3n2)CC1` showed a Ki of 2.51 nM.
`COc1ccccc1N1CCN(CC(O)CCNC(=O)c2ccc3cc(F)ccc3n2)CC1` (stereo not given) was tested, and the Ki was 53.1 nM.
With `COc1ccccc1N1CCN(CCCCNC(=O)c2cnc3ccc(F)cc3c2)CC1` the Ki was 2.14 nM.
Work on `COc1ccccc1N1CCN(CC(O)CCNC(=O)c2cnc3ccc(F)cc3c2)CC1` (stereo not given) yielded a Ki of 44.8 nM.
`COc1ccccc1N1CCN(CC(O)CCNC(=O)c2cnc3ccc(C)cc3c2)CC1` (stereo not given) showed a Ki of 52.9 nM.
`COc1ccc2ncc(C(=O)NCCC(O)CN3CCN(c4ccccc4OC)CC3)cc2c1` (stereo not given) gave a Ki of 69.9 nM.
`COc1ccccc1N1CCN(CC(O)CCNC(=O)c2ccc3cccnc3c2)CC1` (stereo not given) gave a Ki of 37.7 nM.
